Measurements reported in patent publication US20210393636A1, “TREATMENT OF CNS AND DEVELOPMENTAL DISORDERS USING HIGH DOSE 5-FORMYL-(6S)-TETRAHYDROFOLATE” (priority 2019, published 2021).

Assays:
[1] = Folate absorption in serum after single high-dose oral administration of different folates (Example 1); conditions: for 5-FoTHF / THF / Total Uptake / 5-MTHF: 4 mg/kg single oral dose; for 5-MTHF: D- and L-forms
Protocol: For this study, 4 mg/kg folate was administered as a single dose to 250-300 g male Wistar rats. […] For each form of folate 4 time points of 30 min, 1 h, 2 h and 4 h were evaluated. For each time point 2 rats were used. The folate form dissolved in 0.5 ml buffered saline was administered orally using a blunt needle attached to a 1 ml syringe. The rats were euthanized by CO2 inhalation.
Blood was drawn cardiac puncture, allowed to clot for 30 min, serum separated, diluted in equal volume of 4% ascorbate pH 7.2 and kept frozen at −20 C. Folate forms in the serum was determined by HPLC and the peaks were quantified by comparing to known standards as described below.
Folate standards (5-MTHF, FA, THF and Formyl-THF) and 13C-labeled stable isotope internal standards (13C5-5-MTHF, 13C5-FA and 13C-Formyl-THF) were obtained from Schircks Laboratories (Switzerland). Formic acid, ascorbic acid and dithiothreitol (DTT) were obtained from Fluka and Optima LC-MS grade methanol from Fisher Scientific. Stock standards for each folate metabolite and internal standards were prepared as 1 mmol/L solutions in water containing 2 mg/mL ascorbic acid and stored at −80° C. Microtiter plates used for were purchased from NUNC.
Liquid chromatography electrospray ionization mass spectrometry (LC-ESI-MS/MS) analysis of plasma 5-MTHF, FA, THF, Formyl-THF was performed on a Sciex 5500QTRAP mass spectrometer (Foster City, Calif., USA) coupled with a Shimadzu ultra-high pressure Nexera chromatograph system (Kyoto, Japan). The MS/MS experiments were performed under positive electrospray ionization (+ESI) with multiple-reaction monitoring (MRM) using a Turbolon Spray electrospray source operating at a voltage of 5.5 kV and desolvation temperature of 500° C. The calibration curve was prepared in water containing 2 mg/mL ascorbic acid over a range of 12.5-400 nmol/L for each folate analyte.
Sample preparation involved combining 50 µl of blank, standard, control or sample with 10μ1 62.5 mM dithiothreitol, 20 mg/ml ascorbic acid and 2.5 μM 13C5-5-MTHF, 13C5-FA, 13C-Formyl-THF in 1.5 mL Eppendorf tubes, mixed by vortex and incubated for 10 minutes at room temperature in the dark. Next, samples were deproteinized with 5 volumes of methanol containing 2 mg/ml of ascorbic acid and vortexed and centrifuged at 14800 rpm for 10 minutes. Supernatant was loaded in a 96-well microtiter plate for analysis. The samples were analyzed following injection of 10 μL of extract on a Synergi Hydro 4μ 150×3 mm with a 4×2 mm SecurityGuard column (Phenomenex, Calif., USA) maintained at 40° C. (Phenomenex) and eluted in a gradient with buffer A (100% water with 0.1% formic acid) and buffer B (100% Methanol with 0.1% formic acid). The flow rate was 0.5 mL/min, with a gradient over a total run time of 6 min: 0.0-2.0 min, 0-100% B; 2.5 min, 100% B; 2.6-6.0 min, 0% B.
Total analytical analysis, including column re-equilibration, was 6 minutes. Eluent flow from the column was diverted to waste at the beginning and end of each run and was only directed to the source for the period from 1.5-3.5 minutes. The LC-MS/MS data was acquired and processed using Analyst 1.5.2 software (Sciex).
Values reported include both D- and L-forms.

[2] = Total folates in serum 24 h after oral administration of folate forms (Example 2); format: in vivo, rats; design: Total Folates in Serum (total 5-MTHF D- and L- plus folic acid): unit not given here; conditions: for Total Folates in Serum (total 5-MTHF D- and L- plus folic acid): 4 mg/kg oral, 24 h
Protocol: (§1) This study evaluated the difference in folate absorption in non-pregnant rats, pregnant rats, pregnant rats injected with a control antibody, and pregnant rats injected with antibody to the folate receptor alpha. Eight (8) rats were assigned to each group for a total of thirty-two (32) rats. Two rats within each group were administered a single oral dose of PGA, 5-methyl-(6S)-THF, folinic acid or 5-formyl-(6S)-THF as a liquid solution and sacrificed at 24-hours to evaluate folate absorption patterns. The total amount of each form of folate administered to each rat was 4 mg/kg.
Serum was withdrawn immediately before the rat was sacrificed. For extraction of folate from serum, an aliquot of the serum was diluted in 3 volumes of phosphate buffer pH 5.5, placed in a boiling water bath for 10 min, cooled, the protein precipitate separated by centrifugation and the clear supernatant was assayed for folate concentration.

[3] = Tissue distribution of folates 24 h after oral administration of folate forms (Example 2); format: in vivo, rats; conditions: for Total 5-MTHF + PGA in Brain: derived from cortex and cerebellum
Protocol: as §1
Additional analyses were performed in various tissues of the pregnant and non-pregnant rats. For tissues other than serum, each tissue was collected, weighed and stored at −20 C. For the folate assay each tissue was suspended in 3 volumes of phosphate buffer containing 2% ascorbic acid pH 7.4 and homogenized using a polytron probe. An aliquot of this homogenate was diluted 10 fold in PO4 buffer PH 5.5 containing 0.2% ascorbic acid, in a glass tube, sealed and placed in a boiling water bath for 10 min. The tube was cooled to room temperature, precipitate removed by centrifugation and the clear supernatant assayed for folate. Brain concentrations were derived from cortex and cerebellum.

[4] = Tissue distribution of folates 24 h after oral administration of folate forms to rat pups, with and without FR Ab (Example 3); format: in vivo; conditions: for Folate (mean), Cerebellum / Folate (mean), Cerebrum / Folate (mean), Kidney / Folate (mean), Liver: PND 21 rat pups, 4 mg/kg oral, 24 h
Protocol: To determine tissue distribution of orally administered folate forms in young rat pups and study the effect of folate receptor antibodies on this distribution. PND 21 rat pups weighing about 50 g were administered folate forms orally at a dose of 4 mg/kg. Animals were euthanized after 24 h and tissues collected for analyzing total methylfolate in each tissue to provide a measure of normal distribution.

[5] = non-pregnant rats, without antibody, 4 mg/kg oral, 24 h
[6] = pregnant rats, + Control IgG, 4 mg/kg oral, 24 h
[7] = pregnant rats, + FRAb, 4 mg/kg oral, 24 h
[8] = pregnant rats, w/o IgG, 4 mg/kg oral, 24 h

Compound: Nc1nc2c(c(=O)[nH]1)N(C=O)[C@@H](CNc1ccc(C(=O)N[C@@H](CCC(=O)O)C(=O)O)cc1)CN2 [5-formyl-(6S)-tetrahydrofolate]
- serum THF and 5-MTHF compared to folinic acid ([1]; especially at one hour): Much better
- THF generation and total uptake compared to 5-methyl-(6S)-THF administration ([1]; serum, 4 mg/kg oral): much greater
- 5-FoTHF ([1]; serum, 0.5 hr): 68.2 ng/mL
- THF ([1]; serum, 0.5 hr): 22.9 ng/mL
- Total Uptake ([1]; serum, 0.5 hr): 252.6 ng/mL
- 5-MTHF ([1]; serum, 0.5 hr): 161.6 ng/mL
- 5-FoTHF ([1]; serum, 1 hr): 97.3 ng/mL
- THF ([1]; serum, 1 hr): 35.8 ng/mL
- Total Uptake ([1]; serum, 1 hr): 375.0 ng/mL
- 5-MTHF ([1]; serum, 1 hr): 241.9 ng/mL
- 5-FoTHF ([1]; serum, 2 hr): 19.7 ng/mL
- THF ([1]; serum, 2 hr): 9.0 ng/mL
- Total Uptake ([1]; serum, 2 hr): 162.9 ng/mL
- 5-MTHF ([1]; serum, 2 hr): 144.1 ng/mL
- 5-FoTHF ([1]; serum, 4 hr): 7.0 ng/mL
- THF ([1]; serum, 4 hr): 39.1 ng/mL
- Total Uptake ([1]; serum, 4 hr): 216.1 ng/mL
- 5-MTHF ([1]; serum, 4 hr): 173.5 ng/mL
- Total Folates in Serum (total 5-MTHF D- and L- plus folic acid) ([2]; Non-pregnant rats): 27.5
- concentrations of total folates in serum compared to other folate forms ([2]; especially pregnant rats injected with folate receptor antibody): superior concentrations of total folates
- Total Folates in Serum (total 5-MTHF D- and L- plus folic acid) ([2]; pregnant rats, Control Ab + Form): 247.1
- Total Folates in Serum (total 5-MTHF D- and L- plus folic acid) ([2]; pregnant rats, FRAb + Form): 228.8
- Total Folates in Serum (total 5-MTHF D- and L- plus folic acid) ([2]; pregnant rats, Form Only): 88.9
- concentrations of folates in ovary, brain and cerebellum compared to 5-methyl-6S-THF ([3]; non-pregnant rats without folate receptor antibody): much better concentrations of folates
- Total 5-MTHF + PGA in Cerebellum [3, 5]: 8.2
- Total 5-MTHF + PGA in Cortex [3, 5]: 1.5
- Total 5-MTHF + PGA in Kidney [3, 5]: 20.4
- Total 5-MTHF + PGA in Liver [3, 5]: 93.0
- Total 5-MTHF + PGA in Ovary [3, 5]: 9.8
- Total 5-MTHF + PGA in Brain [3, 5]: 4.8
- folate concentrations in placenta and embryo compared to 5-methyl-6S-THF or folinic acid ([3]; pregnant rats without folate receptor antibody): much better folate concentrations
- Total 5-MTHF + PGA in Embryo [3, 6]: 2.8 ng/mg
- Total 5-MTHF + PGA in Kidney [3, 6]: 19.8 ng/mg
- Total 5-MTHF + PGA in Liver [3, 6]: 38.2 ng/mg
- Total 5-MTHF + PGA in Ovary [3, 6]: 7.1 ng/mg
- Total 5-MTHF + PGA in Placenta [3, 6]: 3.3 ng/mg
- Total 5-MTHF + PGA in Brain [3, 6]: 4.8 ng/mg
- Total 5-MTHF + PGA in Embryo [3, 7]: 2.3 ng/mg
- Total 5-MTHF + PGA in Kidney [3, 7]: 14.3 ng/mg
- Total 5-MTHF + PGA in Liver [3, 7]: 39.1 ng/mg
- Total 5-MTHF + PGA in Ovary [3, 7]: 3.2 ng/mg
- Total 5-MTHF + PGA in Placenta [3, 7]: 3.0 ng/mg
- Total 5-MTHF + PGA in Brain [3, 7]: 3.5 ng/mg
- Total 5-MTHF + PGA in Embryo [3, 8]: 7.2 ng/mg
- Total 5-MTHF + PGA in Kidney [3, 8]: 20.2 ng/mg
- Total 5-MTHF + PGA in Liver [3, 8]: 44.8 ng/mg
- Total 5-MTHF + PGA in Ovary [3, 8]: 9.3 ng/mg
- Total 5-MTHF + PGA in Placenta [3, 8]: 9.0 ng/mg
- Total 5-MTHF + PGA in Brain [3, 8]: 2.0 ng/mg
- Folate (mean), Cerebellum ([4]; + FRAb (100 ug IP 24 h prior)): 69.5 ng/mg
- Folate (mean), Cerebrum ([4]; + FRAb (100 ug IP 24 h prior)): 13.2 ng/mg
- Folate (mean), Kidney ([4]; + FRAb (100 ug IP 24 h prior)): 48.7 ng/mg
- Folate (mean), Liver ([4]; + FRAb (100 ug IP 24 h prior)): 133.44 ng/mg
- Folate (mean), Cerebellum ([4]; no FRAb): 93.3 ng/mg
- Folate (mean), Cerebrum ([4]; no FRAb): 15.3 ng/mg
- Folate (mean), Kidney ([4]; no FRAb): 52.1 ng/mg
- Folate (mean), Liver ([4]; no FRAb): 80.0 ng/mg
- change of folates in the brain on antibody administration ([4]; antibody-treated pups vs pups without antibody): The opposite is observed
- folate concentrations in cerebellum and cerebrum compared to 5-methyl-6S-THF ([4]; rat pups with and without the antibody): much higher folate concentrations
